Results: PMC7714489 (Journal of medicinal chemistry, 2015)

Assays:
Format in all cases: cell-based
[1] = tested on: cellular GAPDH levels; experiment: Effect on cellular GAPDH levels; settings: 100 μM; data not shown
[2] = tested on: thymidine uptake; experiment: Effect on thymidine uptake; settings: 100 μM; data not shown
[3] = tested on: PC3 cells (a human prostate cancer cell line); experiment: Toxicity in PC3 cells; settings: 100 μM; data not shown
[4] = tested on: subgenomic HCV replicon in Huh-7 cells; experiment: HCV subgenomic replicon assay in Huh-7 cells; settings: Huh-7 replicon
[5] = tested on: HepG2 cells; experiment: Lactate production assay; settings: 10 μM, HepG2, 14 days

Structure (SMILES)	effect on cellular GAPDH levels [1]	effect on thymidine uptake [2]	toxicity in PC3 cells [3]	inhibition of HCV RNA replication (in words) [4]	cell death in lactic acid experiment [5]
CCOC(=O)CCc1ccccc1O[P@@](=O)(N[C@@H](C)C(=O)OCC)OC[C@H]1O[C@@H](n2cnc3c(N)nc(N)nc32)[C@](C)(O)C1O (stereo in doubt) [15b(Rp), Ethyl 3-(2-(((R)-(((2R,3R,4R,5R)-5-(2,6-Diamino-9H-purin-9-yl)-3,4-dihydroxy-4-methyltetrahydrofuran-2-yl)methoxy)(((S)-1-ethoxy-1-oxopropan-2-yl)amino)phosphoryl)oxy)phenyl)-propanoate]	did not observe	did not observe	did not observe any toxicity		
COc1nc(N)nc2c1ncn2[C@@H]1O[C@H](COP(=O)(N[C@@H](C)C(=O)OCC(C)(C)C)Oc2cccc3ccccc23)[C@@H](O)[C@@]1(C)O (stereo partly drawn) [compound 1, reference compound]				nanomolar potency	excessive cell death
CCOC(=O)CCc1ccccc1OP(=O)(OC[C@H]1O[C@@H](n2cnc3c(N)nc(N)nc32)[C@](C)(O)[C@@H]1O)Oc1ccccc1CCC(=O)OCC [compound 18]				inactive	
